# According to US10835533B2, “1 -((3S,4R)-4-(3-fluorophenyl)-1-(2-methoxyethyl)pyrrolidin-3-yl)-3-(4-methyl-3-(2-methylpyrimidin-5-yl)-1-phenyl-1H-pyrazol-5-yl)urea as a TrkA kinase inhibitor” (Array BioPharma Inc., priority 2014, dated 2020):
# Experiment: Male Sprague Dawley rat pharmacokinetics, oral 10 mg/kg (Example D)
# Assay type: in vivo
# Details: for Plasma:Brain ratio: Rat PO 10 mg/kg, plasma and brain collected 2 hours post dose; for Trough concentration / AUC / Cmax: Rat, oral dose 10 mg/kg, plasma; for AUC / Cmax: male, Sprague Dawley
# Description: Each of Compound 1, Compound 2, and Compound 3 was formulated by adding the compound (dry) to 20% Trappsol® (hydroxypropyl Beta cyclodextrin; CDT, Inc.) (aq) pH 5.0 and vortexing until a homogeneous suspension (PO) or solution (IV) was achieved.
# For oral dosing, rats received a single oral dose following an overnight fast. Blood was drawn from the lateral tail vein while the animal was anesthetized with 3% isoflurane balanced with O2 (0.2 mL/timepoint) into NaEDTA tubes (1.5% v/v) at the following time points: 5, 15, and 30 minutes, and 1, 2, 4, 8, 24 and 26 hours, and mixed thoroughly. Following the 24 hour blood collection, animals were redosed orally, and plasma and brain were collected 2 hours post dose for compound analysis. Brains were perefused with saline before removal, weighed and flash frozen in liquid nitrogen until analysis by LCMS/MS. Plasma was separated by centrifugation at 14,000 rpm for 10 minutes and the plasma samples were transferred to 96 well plate tubes with rubber caps and stored at −20±5° C. until analyzed.
# A single 12-point calibration curve was prepared by first serially diluting (3-fold) a 40-μg/mL stock solution of Compound 1, Compound 2, and Compound 3 in DMSO to provide standard solutions. Plasma (20 μL) was then added to the extraction plate, and 2.5 μL of each standard solution was added to the naïve plasma. A stock solution of an internal standard (10.0 μL of 2.5 μg/mL in acetonitrile) subsequently was added to each standard and sample solution. Proteinaceous material was precipitated from 20 μL of plasma with the addition of 317.5 μL of acetonitrile for a total volume of 350 μL. Samples were vortex-mixed for 5 minutes and spun in an Allegra X-12R centrifuge (Beckman Coulter, Fullerton, Calif.) for 15 minutes at approximately 1,500×g at 4° C. A 100-μL aliquot of each supernatant was transferred via a 550 μL Personal Pipettor (Apricot Designs, Monrovia, Calif.) to 96-well plates and diluted 1:1 with HPLC grade water. The resulting plates were sealed with plate mats and the amount of Compound 1n the plasma was analyzed by LC-MS/MS.
# The LC-MS/MS system was comprised of an HTC-PAL autosampler (Leap Technologies, Inc., Carrboro, N.C.), an HP1100 HPLC (Agilent Technologies Inc., Santa Clara, Calif.), and an API4000 triple quadrupole mass spectrometer (Applied Biosystems, Foster City, Calif.). Chromatographic retention of the analyte and internal standard was achieved using a Phenomenex® Synergi 4μ Hydro-RP 80A column (2.1×30 mm, 4 μm particle size; Phenomenex, Torrance, Calif.) in conjunction with gradient conditions using mobile phases A (10 mM ammonium acetate in aqueous 0.1% formic acid and 1% isopropyl alcohol) and B (10 mM ammonium acetate in 89.9% acetonitrile, 10% methanol, 0.1% formic acid). The total run time, including re-equilibration time, for a single injection was 3.5 minutes and the flow rate was 0.8 mL/minute. Solvent B was increased from 5 to 95% in 1.0 minute, held at 95% for 1.0 minute, and then decreased to 5% in 0.1 minute.
# A single 12-point calibration curve was prepared by first serially diluting (3-fold) a 40-μg/mL stock solution of each of Compound 1, Compound 2, and Compound 3 in DMSO. Brain homogenate was prepared by adding 5.0 mL of water to conical 50 mL tubes containing brains. The contents of the tubes were homogenized using an Omni-Prep Multi Sample Homogenizer (Kennesaw, Ga.) at 22,000 RPM for 180 seconds. The homogenate (100 μL) was added to the extraction plate, and 2.5 μL each standard solution was added to the naïve brain homogenate. A stock solution of an internal standard (10.0 μL of 2.5 μg/mL in acetonitrile) subsequently was added to each standard and sample solution. Proteinaceous material was precipitated from 100 μL of […] with the addition of 237.5 μL of acetonitrile for a total volume of 350 μL. […]
Plasma:Brain ratio,Trough concentration,AUC,Cmax,Structure (SMILES)
21,0.00134 µg/mL,2570 ng·h/mL,1060 ng/mL,"COCCN1C[C@@H](NC(=O)Nc2c(C)c(-c3cnc(C)nc3)nn2-c2ccccc2)[C@H](c2cccc(F)c2)C1 [Compound 1, 1-((3S,4R)-4-(3-fluorophenyl)-1-(2-methoxyethyl)pyrrolidin-3-yl)-3-(4-methyl-3-(2-methylpyrimidin-5-yl)-1-phenyl-1H-pyrazol-5-yl)urea]"
11,0.000446 µg/mL,925 ng·h/mL,420 ng/mL,"COCCN1C[C@@H](NC(=O)Nc2c(C)c(-c3cnc(C)nc3)nn2-c2ccccc2)[C@H](c2ccc(F)c(F)c2)C1 [Compound 2, 1-((3S,4R)-4-(3,4-difluorophenyl)-1-(2-methoxyethyl)pyrrolidin-3-yl)-3-(4-methyl-3-(2-methylpyrimidin-5-yl)-1-phenyl-1H-pyrazol-5-yl)urea]"
–,0.00044 µg/mL,1060 ng·h/mL,498 ng/mL,"COCCN1C[C@@H](NC(=O)Nc2c(C)c(-c3cnn(C)c3)nn2-c2ccccc2)[C@H](c2ccc(F)cc2)C1 [Compound 3, 1-(1′,4-dimethyl-1-phenyl-1H,1′H-[3,4′-bipyrazol]-5-yl)-3-((3S,4R)-4-(4-fluorophenyl)-1-(2-methoxyethyl)pyrrolidin-3-yl)urea]"
